This note sets out measurements from patent publication US8063033B2, “Therapeutic beta-lactams” (Allergan, Inc., priority 2008, dated 2011).

The assay concerns lashes and adjacent hairs of patients. Put plainly: Observation of eyelash/hair growth in glaucoma patients treated in one eye. Type of assay: in vivo, human. The settings on record: glaucoma patient treated in one eye only. From the text: In the course of treating patients having glaucoma, treatment may only be appropriate in one eye. […] The lash appearance on the lids of the treated eyes would have appeared quite attractive if it represented a bilateral phenomenon. As a result of its asymmetric nature, the long lashes on one side could be construed as disturbing from a cosmetic standpoint. A systemic examination was preformed as a result of the asymmetric phenomenon. It soon became apparent that this altered appearance was not an isolated finding. […] Definite differences could be identified to varying degrees in the lashes and adjacent hairs of all patients who were taking the drug on a unilateral basis for longer than 6 months.
The changes in the lashes were apparent on gross inspection in several patients once attention was focused on the issue. In those with light colored hair and lashes, the differences were only seen easily with the aid of the high magnification and lighting capabilities of the slit lamp biomicroscope. In the course of glaucoma follow-up examination, attention is generally immediately focused on the eye itself. As a result of the high power magnification needed only one eye is seen at a time and the eye is seen at a high enough power that the lashes are not in focus. […]

Structures are written as SMILES.

As for `CCNC(=O)CCC/C=C\C[C@@H]1[C@@H](/C=C/[C@@H](O)CCc2ccccc2)[C@H](O)C[C@@H]1O` [bimatoprost], the “lash appearance in treated eye versus non-treated eye” value is “longer, thicker, and fuller”.
